ChEMBL document CHEMBL3132754 (Medchemcomm, 2013)

Columns and labels:
[1] = Metabolic stability in human liver microsomes assessed as compound remaining at 200 uM measured after 1 hr by LC/MS/MS method; assay type: ADME; details: read-out: Stability
[2] = (§1) Stability in human plasma assessed as compound remaining at 5 uM after 1 hr by LC/MS/MS method; assay type: ADME, cell-free; details: read-out: Stability
Plasma = test: as §1; assay type: ADME, cell-free; details: 1 h, 5 µM
MV4-11 = test: […] histone methylation in human MV4-11 cells assessed as H3K79 methylation after 4 days by Western blot analysis; assay type: functional, cell-based; details: MV4-11, 96 h

| remaining at 1 h, 200 µM [1] [%] | remaining at 1 h, 5 µM [2] [%] | Stability (Plasma) | IC50 (MV4-11) [nM] | Compound |
| --- | --- | --- | --- | --- |
| 50 | 90 |  |  | CC(C)N(CCCNC(=O)Nc1ccc(C(C)(C)C)cc1)C[C@H]1O[C@@H](n2cnc3c(N)ncnc32)[C@H](O)[C@@H]1O |
| 50 |  | Stable | 200 | CC(C)N(CCCNC(=O)Nc1ccc(C(C)(C)C)cc1)CC1=C[C@@H](n2cnc3c(N)ncnc32)[C@H](O)[C@@H]1O |
|  |  | Stable |  | CC(C)N(CCCNC(=O)Nc1ccc(C(C)(C)C)cc1)C[C@H]1C[C@@H](n2cnc3c(N)ncnc32)[C@H](O)[C@@H]1O |
